The text below walks through data of ChEMBL document CHEMBL1201862, “PubChem BioAssay data set” (2004).

Activity calls are given as the source filed them.

Test [1] deals with NS3 (Hepatitis C virus, UniProt A3EZJ3). As to the kind of experiment: PubChem AID 2173. The arrangement: species or system Hepacivirus hominis.
In test [2] the target is Heat shock protein HSP 90-alpha (Homo sapiens, UniProt P07900). Format: functional, organism-based.
Test [3] concerns the target Lysosomal acid glucosylceramidase (Homo sapiens, UniProt P04062). As to the kind of experiment: Dose response cell-based high throughput screening assay to identify enhancers of beta-glucosidase activity. [Related pubchem assays: 784 ]. The class given is functional.
For test [4], the target named is Peroxisome proliferator-activated receptor gamma/Nuclear receptor corepressor 2 (Homo sapiens, UniProt P37231+Q9Y618). Format: functional.
Test [5] addresses Photoreceptor-specific nuclear receptor (Homo sapiens, UniProt Q9Y5X4). Format: functional.
For test [6], the target named is T1, Estrogen receptor (Homo sapiens, UniProt P03372).
T1 sequence (P03372 whole entry): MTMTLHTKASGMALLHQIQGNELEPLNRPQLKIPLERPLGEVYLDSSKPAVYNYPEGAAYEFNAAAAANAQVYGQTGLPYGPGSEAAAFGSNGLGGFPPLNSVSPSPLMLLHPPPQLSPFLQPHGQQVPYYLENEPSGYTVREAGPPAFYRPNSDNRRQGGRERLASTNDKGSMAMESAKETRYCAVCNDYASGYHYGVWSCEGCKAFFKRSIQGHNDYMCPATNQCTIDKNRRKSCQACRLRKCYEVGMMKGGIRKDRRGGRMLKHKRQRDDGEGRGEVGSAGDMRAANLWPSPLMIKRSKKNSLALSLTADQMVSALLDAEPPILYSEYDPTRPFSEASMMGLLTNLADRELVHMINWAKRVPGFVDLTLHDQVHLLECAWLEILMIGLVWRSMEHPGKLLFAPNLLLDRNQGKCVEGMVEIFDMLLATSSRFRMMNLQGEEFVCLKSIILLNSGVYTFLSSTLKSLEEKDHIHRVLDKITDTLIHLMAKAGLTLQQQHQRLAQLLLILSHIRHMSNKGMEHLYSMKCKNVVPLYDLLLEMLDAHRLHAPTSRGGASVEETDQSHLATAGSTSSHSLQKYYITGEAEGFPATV
As to the kind of experiment: ERα–SRC-3 coactivator interaction inhibitors, confirmation, orthogonal assay, biochemical, ELISA, streptavidin-HRP readout (AID 1079). A general note: An ELISA detects its analyte on a solid surface through an enzyme-linked reagent.

Test [7] addresses Neuropeptide Y receptor type 2 (Homo sapiens, UniProt P49146). Description: Fluorescence-based cell-based high-throughput dose response assay for agonists of NPY-Y2. [Related pubchem assays: 1703 (Screening assay (CNGC inhibitors).), 1359 (Screening assay (NPY-Y2 potentiators or agonists).), 1304 (Screening assay (NPY-Y1 potentiators or agonists).), 1710 (Screening assay (NPY-Y2 agonists).), 1791 (Summary AID.)]. Format: functional.

A short description of test [8]: inhibitors of intracellular T. cruzi replication, confirmation, NIH3T3 host cells, beta-gal luminescence (AID 2044).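 Also: intracellular parasites grown in NIH/3T3 mouse fibroblasts as host cells; luminescent beta-galactosidase reporter signal from transgenic T. cruzi replicating inside host cells; inhibitors lower the luminescence signal.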 The class given is functional, cell-based.
For test [9], the target named is Neuropeptide Y receptor type 1 (Homo sapiens, UniProt P25929). As to the kind of experiment: Fluorescence-based counterscreen for agonists of NPY-Y2: cell-based high-throughput dose response assay for agonists of NPY-Y1. The class given is functional. On the technique in general: The purpose of a counterscreen is to sort out artefacts and off-target activity.
Sequence of Neuropeptide Y receptor type 1 (P25929 whole entry): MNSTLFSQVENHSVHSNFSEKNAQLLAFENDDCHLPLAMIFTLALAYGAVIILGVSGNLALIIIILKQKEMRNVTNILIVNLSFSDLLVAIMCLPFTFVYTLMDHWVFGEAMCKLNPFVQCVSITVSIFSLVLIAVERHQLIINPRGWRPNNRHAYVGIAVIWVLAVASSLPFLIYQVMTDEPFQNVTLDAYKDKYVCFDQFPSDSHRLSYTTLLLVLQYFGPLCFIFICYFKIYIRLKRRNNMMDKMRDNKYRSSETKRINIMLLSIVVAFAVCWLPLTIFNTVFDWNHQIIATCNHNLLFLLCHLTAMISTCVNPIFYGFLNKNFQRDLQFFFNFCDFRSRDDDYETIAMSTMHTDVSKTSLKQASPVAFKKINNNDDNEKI
Test [10] can be described thus: cytotoxicity toward NIH3T3 fibroblasts, dose response, counter-screen, cell-based, ATP luminescence, mouse fibroblasts (AID 2010).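 Also: cells exposed to compound for about 90 hours before reading.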 Format: functional.
The test system of test [11] is HEK293. Description: Fluorescence-based counterscreen for potentiators or agonists of NPY-Y2: cell-based high-throughput dose response assay to identify inhibitors of cyclic nucleotide gated ion channel (CNGC) activity. In this assay, the parental HEK293 cell line transfected with a cyclic-nucleotide gated ion channel (CNGC)-based cAMP sensor is used to measure inhibition of isoproterenol-induced CNGC activity by test compound. Format: functional. The settings on record: Homo sapiens.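 Also: stimulus is 1 µM isoproterenol at EC100 plus PDE inhibitor Ro 20-1724 at 25 µM.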

Test [12] has as its target T2, Heat shock factor protein 1 (Mus musculus, UniProt P38532).
T2 sequence (P38532 whole entry): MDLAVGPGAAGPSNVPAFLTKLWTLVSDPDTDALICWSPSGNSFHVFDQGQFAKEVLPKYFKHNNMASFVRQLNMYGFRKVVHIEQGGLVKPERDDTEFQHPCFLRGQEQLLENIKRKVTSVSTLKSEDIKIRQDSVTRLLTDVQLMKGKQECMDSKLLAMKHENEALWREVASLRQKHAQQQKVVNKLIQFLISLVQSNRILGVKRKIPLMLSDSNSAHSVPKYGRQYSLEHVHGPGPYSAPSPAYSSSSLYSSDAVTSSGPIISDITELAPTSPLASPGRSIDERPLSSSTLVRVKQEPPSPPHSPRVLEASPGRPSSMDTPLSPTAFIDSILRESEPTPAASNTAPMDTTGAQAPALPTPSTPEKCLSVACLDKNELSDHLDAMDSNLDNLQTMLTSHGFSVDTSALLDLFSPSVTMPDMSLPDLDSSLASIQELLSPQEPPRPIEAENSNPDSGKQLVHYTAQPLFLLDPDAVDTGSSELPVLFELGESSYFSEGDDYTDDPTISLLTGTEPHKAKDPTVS
Description: inhibition of MG132-induced HSE-luciferase signal, confirmation, cell-based, NIH3T3, luminescence, dose retest (AID 2382).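 Also: NIH3T3 fibroblasts with HSF1-driven luciferase reporter stressed by proteasome inhibitor MG132; luminescence from HSF1-driven luciferase expression after 8 hours of MG132 stress.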 The class given is functional.

Test [13] deals with T3, Streptokinase A (Streptococcus pyogenes serotype M1, UniProt P10520).
T3 sequence (P10520 whole entry): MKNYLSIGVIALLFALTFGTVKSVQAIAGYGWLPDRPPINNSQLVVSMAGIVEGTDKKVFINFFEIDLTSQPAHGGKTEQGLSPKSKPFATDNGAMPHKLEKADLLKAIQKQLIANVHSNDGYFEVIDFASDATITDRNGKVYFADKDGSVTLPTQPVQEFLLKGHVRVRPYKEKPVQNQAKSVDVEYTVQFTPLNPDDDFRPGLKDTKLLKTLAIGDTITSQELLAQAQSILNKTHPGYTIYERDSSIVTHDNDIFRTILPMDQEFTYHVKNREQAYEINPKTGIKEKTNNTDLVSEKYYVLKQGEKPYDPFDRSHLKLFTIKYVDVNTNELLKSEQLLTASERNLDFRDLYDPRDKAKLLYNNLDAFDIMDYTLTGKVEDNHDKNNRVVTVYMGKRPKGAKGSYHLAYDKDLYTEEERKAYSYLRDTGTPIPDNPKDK
Description: S. pyogenes streptokinase expression inhibitors, potency, dose response, plasminogen activation absorbance, OD405 (AID 1914).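 Also: secreted streptokinase activity via plasminogen activation per viability signal from cell pellet.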 Format: functional, Streptococcus pyogenes M1 GAS.

Test [14] can be described thus: THP-1 cell cytotoxicity, dose response, cytotoxicity control for non-replicating M. tuberculosis project (AID 489025). Format: functional.
Test [15] is described as follows: luciferase reporter signal reduction – luminescence, H4-C neuroglioblastoma cells, dose response (AID 2458).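 Also: H4 neuroglioblastoma cells stably carrying a luciferase reporter gene fusion.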 Format: functional, cell-based. In general terms: In a reporter assay the amount or activity of a reporter protein is the signal.
A short description of test [16]: cells. The class given is functional, cell-based.
Test [17] can be described thus: inhibitors of SNCA 5'UTR-driven reporter translation, confirmation, H4 neuroglioma cells, luminescence (AID 1988). Format: functional, cell-based.
A short description of test [18]: cytotoxicity in HEK-293T cells, dose response, cytotoxicity control for TCR NF-kB inhibitor project, luminescence, T-cell screen hits (AID 489026).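 Also: cells exposed to compound about 14 hours before the viability readout.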 The class given is functional, cell-based.
A short description of test [19]: microbe, parasite or virus in culture. Format: functional. Particulars: Mycobacterium tuberculosis.
Test [20] concerns INS1. Description: beta cell apoptosis inhibitors, cytokine rescue, dose response, luminescence, retest (AID 449756).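 Also: cell death triggered by IL-1 beta plus TNF-alpha plus IFN-gamma mixture; protective hits raise ATP signal compared with cytokine alone wells.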 The class given is functional, cell-based. The settings on record: Rattus norvegicus.
Test [21] is described as follows: Vero E6 cell cytotoxicity, dose response, cytotoxicity control for non-replicating M. tuberculosis project, secondary assay (AID 492998). The settings on record: Vero C1008. Format: functional, VeroE6.
Test [22] has as its system Streptococcus sp. 'group A'. As to the kind of experiment: growth inhibition of control SK(-) GAS strain, dose response, counter-screen for streptokinase expression inhibitor project, luminescence, kanamycin, BacTiterGlo, confirmation (AID 1900). The class given is functional, organism-based.
For test [23], the system named is Streptococcus. Description: Group A Streptococcus viability loss, dose response, counter-screen for streptokinase expression inhibitor project, luminescence, BacTiterGlo (AID 1915).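 Also: potency for reduction of bacterial viability or growth.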 Format: functional, organism-based.
Test [24] can be described thus: inhibitors of SNCA 5'UTR-driven translation, confirmation, luminescence, H4 neuroglioblastoma cells, dose confirmation (AID 2454).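 Also: H4 neuroglioblastoma cells carrying an alpha-synuclein 5'UTR luciferase reporter; potency for inhibition of the luciferase signal.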 Format: functional, cell-based.
Test [25] is described as follows: cells. Format: functional.
Test [26] relates to BJ. As to the kind of experiment: cells. The class given is functional, cell-based. The settings on record: Homo sapiens.
Test [27] relates to HeLa. Description: Cytotoxicity counterscreen assay for transcriptional activators of heat shock protein 70 (Hsp70). [Related pubchem assays: 1203, 1252 ]. The class given is functional. Particulars: Homo sapiens.
Test [28] can be described thus: cytotoxicity toward DRD oncogenic fibroblasts, dose response, cell-based, non-viral oncogenic, luminescence (AID 1934). The settings on record: Homo sapiens. Format: functional.
In test [29] the target is G2/mitotic-specific cyclin-B1 (Homo sapiens, UniProt P14635). Description: Counterscreen assay for inhibitors of Wee1 degradation: dose response cell-based assay to identify inhibitors of cyclin B degradation. [Related pubchem assays: 1410, 1321 ]. The class given is functional.
Test [30] has as its system BJ. As to the kind of experiment: cytotoxicity toward BJ-TERT-LT-ST fibroblasts, dose response, cell-based, RAS-independent, luminescence (AID 1935).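 Also: BJ fibroblasts immortalized with TERT plus LT and ST oncogenes.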 The class given is functional. Particulars: Homo sapiens.
For test [31], the system named is BJ. Description: cytotoxicity toward BJ-TERT fibroblasts, dose response, cell-based, RAS-independent, luminescence (AID 1933). The class given is functional. Particulars: Homo sapiens.
Test [32] addresses Wee1-like protein kinase (Homo sapiens, UniProt P30291). Description: Dose Response Cell-based Assay for Inhibitors of Wee1 Degradation. [Related pubchem assays: 1410, 1321 ]. The class given is functional.
In test [33] the target is E3 ubiquitin-protein ligase Mdm2 (Homo sapiens, UniProt Q00987). Description: enhancers of MDM2-luciferase reporter signal, concentration-effect titration, project on inhibitors of MDM2 ubiquitin ligase, cellular assay, luminescent readout, 384-well plate format (AID 1394).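 Also: MDM2 E3 inhibitors raise luminescence so EC50 is for signal enhancement.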 The class given is functional.
Sequence of E3 ubiquitin-protein ligase Mdm2 (Q00987 whole entry): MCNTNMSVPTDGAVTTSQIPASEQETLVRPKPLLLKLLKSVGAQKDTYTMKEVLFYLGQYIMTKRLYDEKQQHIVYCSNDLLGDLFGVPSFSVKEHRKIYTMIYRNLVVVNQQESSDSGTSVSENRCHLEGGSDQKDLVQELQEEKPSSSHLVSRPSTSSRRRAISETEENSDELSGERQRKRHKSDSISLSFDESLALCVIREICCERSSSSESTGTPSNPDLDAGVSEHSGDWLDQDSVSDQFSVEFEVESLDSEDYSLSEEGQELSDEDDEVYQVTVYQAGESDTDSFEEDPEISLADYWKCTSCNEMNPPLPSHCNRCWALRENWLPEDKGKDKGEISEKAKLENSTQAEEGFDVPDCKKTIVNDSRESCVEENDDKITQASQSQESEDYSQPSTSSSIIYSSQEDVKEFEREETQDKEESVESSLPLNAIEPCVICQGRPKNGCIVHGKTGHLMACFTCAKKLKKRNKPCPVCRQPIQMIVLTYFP
Test [34] deals with T4, Heat shock 70 kDa protein 1A (Homo sapiens, UniProt P0DMV8). As to the kind of experiment: Hsp70 inhibitors, biochemical, TR-FRET (AID 786).
T4 sequence (P0DMV8 whole entry): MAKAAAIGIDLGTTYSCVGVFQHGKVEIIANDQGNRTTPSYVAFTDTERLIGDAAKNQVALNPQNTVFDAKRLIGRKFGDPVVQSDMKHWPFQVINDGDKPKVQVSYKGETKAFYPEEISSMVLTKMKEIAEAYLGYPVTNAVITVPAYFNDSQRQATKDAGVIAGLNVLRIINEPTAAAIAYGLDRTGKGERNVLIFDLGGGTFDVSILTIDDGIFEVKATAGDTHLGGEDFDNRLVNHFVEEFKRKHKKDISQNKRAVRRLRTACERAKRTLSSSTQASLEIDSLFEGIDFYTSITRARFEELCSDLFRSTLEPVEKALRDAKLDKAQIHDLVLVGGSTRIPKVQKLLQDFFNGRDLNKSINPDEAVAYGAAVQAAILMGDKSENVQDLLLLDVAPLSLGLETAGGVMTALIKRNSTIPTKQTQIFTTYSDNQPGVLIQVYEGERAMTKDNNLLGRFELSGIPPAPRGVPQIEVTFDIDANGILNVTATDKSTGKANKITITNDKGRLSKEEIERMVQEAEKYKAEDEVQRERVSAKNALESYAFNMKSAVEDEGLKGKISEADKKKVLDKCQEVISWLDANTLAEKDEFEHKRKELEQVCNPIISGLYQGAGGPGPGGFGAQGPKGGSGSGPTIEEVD
Test [35] has as its target T4, Heat shock 70 kDa protein 1A. Description: Hsp70 inhibitors, probe displacement, primary screen, biochemical, fluorescence polarization (AID 583).
Test [36] can be described thus: A cytotoxicity screen of small molecule inhibitors of the PhoP region in Salmonella typhi identified in the primary screen. [Related pubchem assays: 1850, 1864, 1985 ]. The class given is functional.
In test [37] the target is Chaperone protein dnaK (Escherichia coli, UniProt C3TRK2). Description: DnaK beta-domain binding affinity, SAR follow-up, orthogonal assay for DnaK modulator project, biophysical, isothermal titration calorimetry, full-length DnaK (AID 1495).
Sequence of Chaperone protein dnaK (C3TRK2 whole entry): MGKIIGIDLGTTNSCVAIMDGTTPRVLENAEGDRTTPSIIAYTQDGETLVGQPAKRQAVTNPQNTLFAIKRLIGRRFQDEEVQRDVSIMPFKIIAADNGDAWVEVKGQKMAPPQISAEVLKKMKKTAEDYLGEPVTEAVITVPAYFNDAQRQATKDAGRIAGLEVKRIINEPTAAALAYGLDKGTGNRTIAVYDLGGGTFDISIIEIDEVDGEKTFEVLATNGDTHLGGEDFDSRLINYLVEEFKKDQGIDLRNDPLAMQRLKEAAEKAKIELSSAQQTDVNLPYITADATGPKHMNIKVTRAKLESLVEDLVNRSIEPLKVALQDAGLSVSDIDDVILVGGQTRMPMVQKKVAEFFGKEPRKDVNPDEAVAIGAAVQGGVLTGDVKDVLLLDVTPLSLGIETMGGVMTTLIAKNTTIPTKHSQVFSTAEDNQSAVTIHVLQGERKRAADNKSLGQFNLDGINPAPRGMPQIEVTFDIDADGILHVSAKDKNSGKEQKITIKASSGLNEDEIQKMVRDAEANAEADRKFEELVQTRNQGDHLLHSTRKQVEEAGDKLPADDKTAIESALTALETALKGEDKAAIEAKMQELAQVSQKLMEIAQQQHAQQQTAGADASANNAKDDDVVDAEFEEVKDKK

Sequence of Neuropeptide Y receptor type 2 (P49146 whole entry): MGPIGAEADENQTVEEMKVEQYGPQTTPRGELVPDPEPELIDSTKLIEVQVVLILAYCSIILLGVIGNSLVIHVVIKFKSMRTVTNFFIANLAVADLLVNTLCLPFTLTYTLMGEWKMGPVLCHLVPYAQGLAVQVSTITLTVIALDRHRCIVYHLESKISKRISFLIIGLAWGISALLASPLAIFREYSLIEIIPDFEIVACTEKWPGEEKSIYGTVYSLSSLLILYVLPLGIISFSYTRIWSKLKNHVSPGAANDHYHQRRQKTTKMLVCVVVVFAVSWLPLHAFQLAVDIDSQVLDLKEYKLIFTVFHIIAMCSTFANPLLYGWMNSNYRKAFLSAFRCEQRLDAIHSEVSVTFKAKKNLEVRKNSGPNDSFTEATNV
Sequence of Wee1-like protein kinase (P30291 whole entry): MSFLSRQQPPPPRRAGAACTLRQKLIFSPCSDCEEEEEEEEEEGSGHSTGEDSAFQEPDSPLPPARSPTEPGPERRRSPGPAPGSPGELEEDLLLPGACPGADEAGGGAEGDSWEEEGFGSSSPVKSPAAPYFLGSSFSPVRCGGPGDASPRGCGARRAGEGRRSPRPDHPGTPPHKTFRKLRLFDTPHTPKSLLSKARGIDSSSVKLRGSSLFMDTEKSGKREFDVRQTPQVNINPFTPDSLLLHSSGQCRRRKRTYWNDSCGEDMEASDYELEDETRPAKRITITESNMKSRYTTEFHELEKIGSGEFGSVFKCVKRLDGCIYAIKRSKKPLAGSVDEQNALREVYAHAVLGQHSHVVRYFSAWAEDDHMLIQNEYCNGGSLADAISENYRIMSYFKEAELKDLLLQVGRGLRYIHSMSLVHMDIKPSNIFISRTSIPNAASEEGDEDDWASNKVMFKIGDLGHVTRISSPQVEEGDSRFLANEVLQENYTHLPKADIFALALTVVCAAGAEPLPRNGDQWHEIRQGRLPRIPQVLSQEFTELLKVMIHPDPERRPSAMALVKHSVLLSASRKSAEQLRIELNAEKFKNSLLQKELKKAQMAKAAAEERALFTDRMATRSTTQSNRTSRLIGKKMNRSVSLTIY
Sequence of NS3 (A3EZJ3 whole entry): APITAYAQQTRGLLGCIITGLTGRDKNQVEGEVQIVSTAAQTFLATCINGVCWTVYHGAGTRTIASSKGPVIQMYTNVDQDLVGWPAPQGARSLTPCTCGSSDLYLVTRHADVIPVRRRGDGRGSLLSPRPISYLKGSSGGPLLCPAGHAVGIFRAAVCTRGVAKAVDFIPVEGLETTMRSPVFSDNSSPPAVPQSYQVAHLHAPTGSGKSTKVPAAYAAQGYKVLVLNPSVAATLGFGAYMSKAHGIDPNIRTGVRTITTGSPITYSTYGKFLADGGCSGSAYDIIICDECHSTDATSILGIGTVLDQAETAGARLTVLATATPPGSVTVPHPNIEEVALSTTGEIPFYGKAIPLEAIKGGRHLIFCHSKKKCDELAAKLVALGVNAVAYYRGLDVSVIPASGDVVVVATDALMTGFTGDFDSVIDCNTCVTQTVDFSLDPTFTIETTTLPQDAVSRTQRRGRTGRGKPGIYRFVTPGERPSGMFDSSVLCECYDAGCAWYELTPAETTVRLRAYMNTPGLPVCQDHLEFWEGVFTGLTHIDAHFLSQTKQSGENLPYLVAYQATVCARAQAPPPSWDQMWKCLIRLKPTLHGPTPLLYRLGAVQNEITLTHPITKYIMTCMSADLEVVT
Sequence of Lysosomal acid glucosylceramidase (P04062 whole entry): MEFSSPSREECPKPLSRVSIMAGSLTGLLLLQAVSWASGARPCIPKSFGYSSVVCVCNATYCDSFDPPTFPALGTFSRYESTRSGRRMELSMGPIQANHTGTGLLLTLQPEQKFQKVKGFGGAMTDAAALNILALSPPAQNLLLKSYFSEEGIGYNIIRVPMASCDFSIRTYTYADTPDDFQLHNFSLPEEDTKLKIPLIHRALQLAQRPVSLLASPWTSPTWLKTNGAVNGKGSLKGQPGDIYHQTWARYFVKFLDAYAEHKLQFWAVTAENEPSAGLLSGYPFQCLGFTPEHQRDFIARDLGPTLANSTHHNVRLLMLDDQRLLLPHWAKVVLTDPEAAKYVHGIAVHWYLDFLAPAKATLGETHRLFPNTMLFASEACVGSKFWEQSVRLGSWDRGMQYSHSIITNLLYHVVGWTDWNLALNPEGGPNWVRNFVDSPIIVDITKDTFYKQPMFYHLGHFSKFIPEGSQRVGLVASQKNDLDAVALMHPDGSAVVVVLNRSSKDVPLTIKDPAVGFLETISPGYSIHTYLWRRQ
Sequence of Photoreceptor-specific nuclear receptor (Q9Y5X4 whole entry): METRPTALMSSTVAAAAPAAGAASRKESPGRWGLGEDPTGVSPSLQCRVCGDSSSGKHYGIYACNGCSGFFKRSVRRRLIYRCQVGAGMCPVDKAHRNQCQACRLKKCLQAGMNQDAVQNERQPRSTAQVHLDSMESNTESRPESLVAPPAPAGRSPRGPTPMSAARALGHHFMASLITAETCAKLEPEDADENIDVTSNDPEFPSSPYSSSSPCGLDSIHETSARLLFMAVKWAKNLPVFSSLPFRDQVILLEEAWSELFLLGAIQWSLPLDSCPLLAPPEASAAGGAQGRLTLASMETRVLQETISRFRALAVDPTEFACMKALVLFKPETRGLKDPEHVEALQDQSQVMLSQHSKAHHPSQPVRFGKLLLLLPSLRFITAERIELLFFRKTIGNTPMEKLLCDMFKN

In the case of `O=C(N/N=C/c1cc(Cl)c(O)c(Cl)c1)c1cc2c(ccc3ccccc32)o1`, in test [1], the IC50 is 4.26 µM (active). Moreover, the AC50 in [2] is 4.54 µM (active).

For the compound `CCCCN(CC)CCCNC(=O)c1cc2cc3ccc(OC)cc3nc2o1`, in test [3], the EC50 is on record as > 50 µM (not active).

For the compound `O=C(O)c1cc(-c2ccco2)nc2ccc(Br)cc12`, the values for the IC50 in [4] and in test [5] were 1.58 µM (active) and > 39.8 µM (not active), respectively.

`O=C(CCCn1c(=S)[nH]c2ccccc2c1=O)N1CCN(c2ccc(Cl)cc2)CC1`: the IC50 in test [6] is 19.8 µM (not active).

For the compound `COc1ccc2c(c1)c(CC(=O)Nc1nnc(C3CC3)s1)c(C)n2C(=O)c1ccc(Cl)cc1`, the EC50 was > 35.4 µM (not active) in [7]; 2.28 µM (active) in [8]; > 35.4 µM (not active) in [9]; 5.09 µM (active) in test [10]; > 35.4 µM (not active) in test [11]; 21.6 µM (active) in test [12].

As for `CCOc1ccc(Nc2cc(C)nc(-n3nc(C)cc3C)n2)cc1`, the EC50 is > 150 µM (not active) in [13]; 0.588 µM (active) in [15]; 0.969 µM (active) in test [16]; < 0.1 µM (active) in [17]; 7.01 µM (active) in test [22]; > 150 µM (not active) in test [23]. The EC50 in [24] was 0.88 µM (active). Besides, the CC50 was 0.357 µM (active) in test [14], 6.26 µM (active) in test [19] and 1.14 µM (active) in [21]. Moreover, the IC50 in test [18] is > 80 µM (inactive); in test [25] it was 0.56 µM (active). Moreover, the AC50 in test [20] is 2.55 µM (active).

For `C=CS(=O)(=O)c1ccc(Oc2ccc(S(=O)(=O)C=C)cc2)cc1`, the EC50 is > 150 µM (inconclusive) in test [26]; 3.83 µM (active) in [28]; > 5.53 µM (active) in test [29]; > 150 µM (inconclusive) in test [30]; 2.24 µM (inconclusive) in test [31]; > 49.7 µM (not active) in test [32]. In [33], the EC50 is 2.64 µM (active). For the same compound, in [27], the CC50 is listed as > 1.22 µM (not active).

As to `Cc1ccc(OCCN2CCN(C(=O)CCC(=O)Nc3nnc(C)s3)CC2)cc1`, the IC50 in test [34] and in [35] was > 100 µM (not active) each time.

For the compound `Cc1ccsc1/C=N\NC(=O)c1ccc2c(c1)OCO2`, in test [36], the EC50 is > 50 µM (active).

For `O=C(c1cccs1)N1CCN(CCO)CC1`, the Kd in test [37] was 16.7 µM (inactive).

One may read the IC50 as the concentration needed to halve the response being measured. The term AC50 denotes the concentration at which the activity in the assay is half-maximal. A word on the EC50: it is the concentration giving half of the maximal effect. What is called Kd is the equilibrium constant for the complex coming apart.
